Assay results reported in US11590139B2, “Substituted aminopurine compounds, compositions thereof, and methods of treatment therewith” (Signal Pharmaceuticals, LLC, priority 2014, dated 2023).

System: Lox-IMVI melanoma cell line
Experiment: Lox-IMVI anti-proliferative assay (growth inhibition, Cell Titer-Glo)
Type: cell-based, human
Conditions: Homo sapiens; IC50 activity level in the cell-based Lox-IMVI anti-proliferative assay; read-out: Activity
Method in brief: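 RPMI/10% FBS; cmpd 0.5 nM–10 μM, 3-fold ×10, duplicate, 0.2% DMSO final; 72 h, 37 °C, 5% CO2. ATP-luminescence readout at t0 and 72 h. IC50 = 50% of DMSO control, 4-parameter logistic fit.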

Row | SMILES | IC50 [nM]
1 | NC(=O)[C@H]1CC[C@@H](n2c(Nc3c(F)cccc3Cl)nc3cnc(N[C@@H]4CCC[C@H](O)C4)nc32)CC1 [Example 350, (1S,4s)-4-(8-(2-chloro-6-fluorophenylamino)-2-((1R,3S)-3-hydroxycyclohexylamino)-9H-purin-9-yl)cyclohexanecarboxamide] | 500 to 1000
2 | NC(=O)[C@H]1CC[C@@H](n2c(Nc3c(F)cc(Cl)cc3F)nc3cnc(N[C@@H]4CCC[C@H](O)C4)nc32)CC1 [Example 352, (1S,4s)-4-(8-(4-chloro-2,6-difluorophenylamino)-2-((1R,3S)-3-hydroxycyclohexylamino)-9H-purin-9-yl)cyclohexanecarboxamide] | 500 to 1000
3 | NC(=O)[C@H]1CC[C@@H](n2c(Nc3ccc(Cl)c(F)c3F)nc3cnc(N[C@@H]4CCC[C@H](O)C4)nc32)CC1 [Example 360, (1S,4s)-4-(8-(4-chloro-2,3-difluorophenylamino)-2-((1R,3S)-3-hydroxycyclohexylamino)-9H-purin-9-yl)cyclohexanecarboxamide] | > 1000
4 | NC(=O)[C@H]1CC[C@@H](n2c(Nc3c(F)ccc(Cl)c3F)nc3cnc(N[C@@H]4CCC[C@H](O)C4)nc32)CC1 [Example 362, (1S,4s)-4-(8-(3-chloro-2,6-difluorophenylamino)-2-((1R,3S)-3-hydroxycyclohexylamino)-9H-purin-9-yl)cyclohexanecarboxamide] | > 1000
5 | NC(=O)[C@H]1CC[C@@H](n2c(Nc3cc(F)c(Cl)cc3F)nc3cnc(N[C@@H]4CCC[C@H](O)C4)nc32)CC1 [Example 363, (1S,4s)-4-(8-(4-chloro-2,5-difluorophenylamino)-2-((1R,3S)-3-hydroxycyclohexylamino)-9H-purin-9-yl)cyclohexanecarboxamide] | > 1000
6 | NC(=O)[C@H]1CC[C@@H](n2c(Nc3ccc(F)c(F)c3F)nc3cnc(N[C@@H]4CCC[C@H](O)C4)nc32)CC1 [Example 364, (1S,4s)-4-(2-((1R,3S)-3-hydroxycyclohexylamino)-8-(2,3,4-trifluorophenylamino)-9H-purin-9-yl)cyclohexanecarboxamide] | > 1000
7 | NC(=O)[C@H]1CC[C@@H](n2c(Nc3c(Cl)cc(OC(F)(F)F)cc3Cl)nc3cnc(NC4CCOCC4)nc32)CC1 [Example 365, (1s,4s)-4-(8-(2,6-dichloro-4-(trifluoromethoxy)phenylamino)-2-(tetrahydro-2H-pyran-4-ylamino)-9H-purin-9-yl)cyclohexanecarboxamide] | < 250
8 | C[C@@H](CO)Nc1ncc2nc(Nc3c(Cl)cc(C#N)cc3Cl)n([C@H]3CC[C@@H](C(N)=O)CC3)c2n1 [Example 366, (1R,4s)-4-(8-(2,6-dichloro-4-cyanophenylamino)-2-((S)-1-hydroxypropan-2-ylamino)-9H-purin-9-yl)cyclohexanecarboxamide] | < 250
9 | N#Cc1cc(Cl)c(Nc2nc3cnc(NC4CCCC4)nc3n2[C@H]2CC[C@@H](C(N)=O)CC2)c(Cl)c1 [Example 367, (1s,4s)-4-(2-(cyclopentylamino)-8-(2,6-dichloro-4-cyanophenylamino)-9H-purin-9-yl)cyclohexanecarboxamide] | < 250
10 | N#Cc1cc(F)c(Nc2nc3cnc(NC4CCC4)nc3n2[C@H]2CC[C@@H](C(N)=O)CC2)c(F)c1 [Example 368, (1s,4s)-4-(8-(4-cyano-2,6-difluorophenylamino)-2-(cyclobutylamino)-9H-purin-9-yl)cyclohexanecarboxamide] | 500 to 1000
11 | N#Cc1cc(F)c(Nc2nc3cnc(NC4CCCC4)nc3n2[C@H]2CC[C@@H](C(N)=O)CC2)c(Cl)c1 [Example 369, (1s,4s)-4-(8-(2-chloro-4-cyano-6-fluorophenylamino)-2-(cyclopentylamino)-9H-purin-9-yl)cyclohexanecarboxamide] | 250 to 500
12 | NC(=O)[C@H]1CC[C@@H](n2c(Nc3c(F)cc(Cl)cc3F)nc3cnc(N[C@H]4CCC[C@@H](O)C4)nc32)CC1 [Example 372, (1R,4s)-4-(8-(4-chloro-2,6-difluorophenylamino)-2-((1S,3R)-3-hydroxycyclohexylamino)-9H-purin-9-yl)cyclohexanecarboxamide] | > 1000
13 | NC(=O)[C@H]1CC[C@@H](n2c(Nc3ccc(Cl)c(F)c3F)nc3cnc(N[C@H]4CCC[C@@H](O)C4)nc32)CC1 [Example 375, (1R,4s)-4-(8-(4-chloro-2,3-difluorophenylamino)-2-((1S,3R)-3-hydroxycyclohexylamino)-9H-purin-9-yl)cyclohexanecarboxamide] | > 1000

Results, then the molecule that gave them:

Row | IC50 [nM] | SMILES
14 | > 1000 | NC(=O)[C@H]1CC[C@@H](n2c(Nc3c(Cl)cccc3Cl)nc3cnc(N[C@@H]4CCC[C@H](O)C4)nc32)CC1 [Example 349, (1S,4s)-4-(8-(2,6-dichlorophenylamino)-2-((1R,3S)-3-hydroxycyclohexylamino)-9H-purin-9-yl)cyclohexanecarboxamide]
15 | > 1000 | NC(=O)[C@H]1CC[C@@H](n2c(Nc3c(F)cc(F)cc3Cl)nc3cnc(N[C@@H]4CCC[C@H](O)C4)nc32)CC1 [Example 351, (1S,4s)-4-(8-(2-chloro-4,6-difluorophenylamino)-2-((1R,3S)-3-hydroxycyclohexylamino)-9H-purin-9-yl)cyclohexanecarboxamide]
16 | 250 to 500 | NC(=O)[C@H]1CC[C@@H](n2c(Nc3c(Cl)cc(Cl)cc3Cl)nc3cnc(N[C@@H]4CCC[C@H](O)C4)nc32)CC1 [Example 353, (1S,4s)-4-(2-((1R,3S)-3-hydroxycyclohexylamino)-8-(2,4,6-trichlorophenylamino)-9H-purin-9-yl)cyclohexanecarboxamide]
17 | 500 to 1000 | NC(=O)[C@H]1CC[C@@H](n2c(Nc3c(Cl)cc(F)cc3Cl)nc3cnc(N[C@@H]4CCC[C@H](O)C4)nc32)CC1 [Example 354, (1S,4s)-4-(8-(2,6-dichloro-4-fluorophenylamino)-2-((1R,3S)-3-hydroxycyclohexylamino)-9H-purin-9-yl)cyclohexanecarboxamide]
18 | > 1000 | C[C@@H]1CC[C@@H](Nc2ncc3nc(Nc4c(Cl)cc(F)cc4Cl)n([C@H]4CC[C@@H](C(N)=O)CC4)c3n2)C[C@H]1O [Example 355, (1S,4s)-4-(8-(2,6-dichloro-4-fluorophenylamino)-2-((1R,3R,4R)-3-hydroxy-4-methylcyclohexylamino)-9H-purin-9-yl)cyclohexanecarboxamide]
19 | > 1000 | C[C@@H]1CC[C@@H](Nc2ncc3nc(Nc4c(F)cc(Cl)cc4F)n([C@H]4CC[C@@H](C(N)=O)CC4)c3n2)C[C@H]1O [Example 356, (1S,4s)-4-(8-(4-chloro-2,6-difluorophenylamino)-2-((1R,3R,4R)-3-hydroxy-4-methylcyclohexylamino)-9H-purin-9-yl)cyclohexanecarboxamide]
20 | > 1000 | C[C@@H]1CC[C@@H](Nc2ncc3nc(Nc4ccc(Cl)c(F)c4F)n([C@H]4CC[C@@H](C(N)=O)CC4)c3n2)C[C@H]1O [Example 357, (1S,4s)-4-(8-(4-chloro-2,3-difluorophenylamino)-2-((1R,3R,4R)-3-hydroxy-4-methylcyclohexylamino)-9H-purin-9-yl)cyclohexanecarboxamide]
21 | > 1000 | C[C@@H]1CC[C@@H](Nc2ncc3nc(Nc4c(F)ccc(Cl)c4F)n([C@H]4CC[C@@H](C(N)=O)CC4)c3n2)C[C@H]1O [Example 358, (1S,4s)-4-(8-(3-chloro-2,6-difluorophenylamino)-2-((1R,3R,4R)-3-hydroxy-4-methylcyclohexylamino)-9H-purin-9-yl)cyclohexanecarboxamide]
22 | > 1000 | C[C@@H]1CC[C@@H](Nc2ncc3nc(Nc4c(F)ccc(F)c4F)n([C@H]4CC[C@@H](C(N)=O)CC4)c3n2)C[C@H]1O [Example 359, (1S,4s)-4-(2-((1R,3R,4R)-3-hydroxy-4-methylcyclohexylamino)-8-(2,3,6-trifluorophenylamino)-9H-purin-9-yl)cyclohexanecarboxamide]
23 | < 250 | NC(=O)[C@H]1CC[C@@H](n2c(Nc3c(F)cc(Cl)cc3Cl)nc3cnc(N[C@@H]4CCC[C@H](O)C4)nc32)CC1 [Example 361, (1S,4s)-4-(8-(2,4-dichloro-6-fluorophenylamino)-2-((1R,3S)-3-hydroxycyclohexylamino)-9H-purin-9-yl)cyclohexanecarboxamide]
24 | > 1000 | NC(=O)[C@H]1CC[C@@H](n2c(Nc3c(Cl)cccc3Cl)nc3cnc(N[C@H]4CCC[C@@H](O)C4)nc32)CC1 [Example 370, (1R,4s)-4-(8-(2,6-dichlorophenylamino)-2-((1S,3R)-3-hydroxycyclohexylamino)-9H-purin-9-yl)cyclohexanecarboxamide]
25 | > 1000 | NC(=O)[C@H]1CC[C@@H](n2c(Nc3c(F)cc(F)cc3Cl)nc3cnc(N[C@H]4CCC[C@@H](O)C4)nc32)CC1 [Example 371, (1R,4s)-4-(8-(2-chloro-4,6-difluorophenylamino)-2-((1S,3R)-3-hydroxycyclohexylamino)-9H-purin-9-yl)cyclohexanecarboxamide]
26 | 500 to 1000 | NC(=O)[C@H]1CC[C@@H](n2c(Nc3c(Cl)cc(Cl)cc3Cl)nc3cnc(N[C@H]4CCC[C@@H](O)C4)nc32)CC1 [Example 373, (1R,4s)-4-(2-((1S,3R)-3-hydroxycyclohexylamino)-8-(2,4,6-trichlorophenylamino)-9H-purin-9-yl)cyclohexanecarboxamide]
27 | > 1000 | NC(=O)[C@H]1CC[C@@H](n2c(Nc3c(Cl)cc(F)cc3Cl)nc3cnc(N[C@H]4CCC[C@@H](O)C4)nc32)CC1 [Example 374, (1R,4s)-4-(8-(2,6-dichloro-4-fluorophenylamino)-2-((1S,3R)-3-hydroxycyclohexylamino)-9H-purin-9-yl)cyclohexanecarboxamide]
28 | > 1000 | NC(=O)[C@H]1CC[C@@H](n2c(Nc3c(F)cc(Cl)cc3Cl)nc3cnc(N[C@H]4CCC[C@@H](O)C4)nc32)CC1 [Example 376, (1R,4s)-4-(8-(2,4-dichloro-6-fluorophenylamino)-2-((1S,3R)-3-hydroxycyclohexylamino)-9H-purin-9-yl)cyclohexanecarboxamide]
